Reference: patent publication US10813913B2, “Small molecules that mimic or antagonize actions of granulocyte colony-stimulating-factor (G-CSF)” (UNIVERSITY OF SOUTH FLORIDA, priority 2016, dated 2020)
Several values for one entry are separate records, joined by “and”; a condition that tells them apart may be missing. Equal values may be shown once. Entries after “also recorded” stand apart in the source; their conditions may differ.

What was measured:
[1] = test system: PKCδVIII and Bcl2 expressed in SH-SY5Y neuronal cells; test: Western blot of PKCδVIII and Bcl2 in SH-SY5Y neuronal cells; type: cell-based, human; conditions: for effect on G-CSF-induced Bcl2 expression / effect on G-CSF-induced PKCδVIII expression / Bcl2 protein expression / PKCδVIII protein expression: SH-SY5Y, 24 h; for effect on G-CSF-induced Bcl2 expression / effect on G-CSF-induced PKCδVIII expression: co-incubation with G-CSF 100 ng/mL; for Bcl2 protein expression / PKCδVIII protein expression: compound alone, three concentrations; for agonist/antagonist profile at the G-CSF receptor: neuronal cell line (SH-SY5Y)
Method: (§1) THP-1 cells or SH-SY5Y cells 3×10^6 cells in 5 mL media in a 25 cm^2 flask were treated with 100 ng/mL G-CSF or three different concentrations of the test drug for 24 h. In addition, a set of flasks were co-incubated with the combination of G-CSF and 3 concentrations of test drug. Whole cell lysates ([…]) were separated on 10% polyacrylamide gel electrophoresis-SDS (PAGE-SDS). Proteins were electrophoretically transferred to nitrocellulose membranes, blocked with 5% nonfat milk prepared on Tris buffered saline containing 0.1% Tween 20, washed and incubated with a polyclonal antibody against either Bcl2 (Cell Signaling, Danvers, Mass.) or PKCδVIII-specific polyclonal antibody (Jiang, K., et al. Biochemistry 2008, 47, 787-797). The house keeping gene GAPDH was used as an internal standard. Following incubation with anti-rabbit IgG-HRP, enhanced chemiluminesence (Pierce™, Thermo Scientific, Walthahm, Mass.) was used for detection and the gels were analyzed using UN-SCAN-IT™ software (Silk Scientific, Inc., Orem, Utah).
(§2) Statistical analysis. Densitometric results from Western blots were analyzed with two-tailed t-tests when only two groups were compared. In other analyses where 3 groups were compared, one-way ANOVA followed by t-tests with Dunnett's corrections for multiple comparisons was utilized. All data was presented as mean±SEM. All statistical analysis of data was done via PRISM4 or PRISM5 statistical analysis software (GraphPad Prism, La Jolla, Calif.). Neurohistologic analyses are performed using ANOVA. All comparisons were considered significant at level of P<0.05.

[2] = biological target: T1, G-CSF receptor expressed on human monocytes (Homo sapiens, UniProt Q99062); test: Competition/displacement of [125I]-G-CSF from its receptor on monocytes; type: binding; conditions: monocytic cells
T1 construct: Both cell lines are known to express the G-CSF-R; host or cells: THP-1 (human monocytic cell line), intact cells
T1 sequence (Q99062 25-836): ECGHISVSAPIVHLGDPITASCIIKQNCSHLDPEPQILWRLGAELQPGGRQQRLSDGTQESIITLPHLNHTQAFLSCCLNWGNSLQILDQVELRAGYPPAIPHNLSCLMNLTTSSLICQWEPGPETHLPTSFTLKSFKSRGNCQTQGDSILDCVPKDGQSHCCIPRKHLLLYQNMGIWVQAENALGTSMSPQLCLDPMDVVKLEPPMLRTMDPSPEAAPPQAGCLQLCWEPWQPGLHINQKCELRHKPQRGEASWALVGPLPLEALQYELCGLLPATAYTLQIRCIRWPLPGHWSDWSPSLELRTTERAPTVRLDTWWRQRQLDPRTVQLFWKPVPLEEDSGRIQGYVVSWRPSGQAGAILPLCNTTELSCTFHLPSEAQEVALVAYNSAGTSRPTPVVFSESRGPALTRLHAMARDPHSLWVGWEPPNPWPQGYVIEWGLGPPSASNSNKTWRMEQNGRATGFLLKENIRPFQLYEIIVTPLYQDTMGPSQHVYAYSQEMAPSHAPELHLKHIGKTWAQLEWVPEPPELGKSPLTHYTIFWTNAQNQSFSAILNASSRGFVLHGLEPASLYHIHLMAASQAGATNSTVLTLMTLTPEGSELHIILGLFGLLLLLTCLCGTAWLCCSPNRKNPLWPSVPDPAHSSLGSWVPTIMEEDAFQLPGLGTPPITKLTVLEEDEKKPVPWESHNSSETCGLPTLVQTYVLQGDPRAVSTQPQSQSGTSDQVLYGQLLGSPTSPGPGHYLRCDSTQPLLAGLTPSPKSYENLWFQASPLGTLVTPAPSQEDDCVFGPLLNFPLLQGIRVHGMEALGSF
Method: Cells, prepared as described above, were incubated in 180 μL of binding medium containing 0.2% BSA, 5 mM MgSO4 and 50 mM Hepes, pH 7.2 at a concentration of 1.5×10^7 cells/mL and the appropriate concentration of [^125I]-G-CSF. This was followed by addition of increasing concentrations of each study compound (10 to 3000 nM). After 2 hrs of incubation, the amount of bound and free [^125I]-G-CSF was determined, as described above. […] Each concentration was analyzed in triplicate and experiments were repeated three times. These experiments were conducted in human monocytic and neuronal cell lines.
Displacement studies were then conducted for each of the 10 compounds. […] Compounds 6 and 10, which displaced greater than 75% of the ^125I-G-CSF, were further studied for their capacity to mimic or block the intracellular signaling triggered by the natural ligand.

[3] = test system: PKCδVIII and Bcl2 expressed in THP-1 monocytic cells; test: Western blot of PKCδVIII and Bcl2 in THP-1 monocytic cells; type: cell-based, human; conditions: for effect on G-CSF-induced Bcl2 expression / effect on G-CSF-induced PKCδVIII expression: THP-1, co-incubation with G-CSF 100 ng/mL; for effect on G-CSF-induced Bcl2 expression / effect on G-CSF-induced PKCδVIII expression / Bcl2 protein expression / PKCδVIII protein expression: 24 h; for Bcl2 protein expression / PKCδVIII protein expression: THP-1, compound alone, three concentrations; for agonist/antagonist profile at the G-CSF receptor: monocytic cell line (THP-1)
Method: as §1, with “In” for “THP-1 cells or SH-SY5Y cells 3×10^6 cells in 5 mL media in a 25 cm^2 flask were treated with 100 ng/mL G-CSF or three different concentrations of the test drug for 24 h. In”
as §2

[4] = biological target: T2, G-CSF receptor on monocytic (THP-1) cells (Homo sapiens, UniProt Q99062); test: Saturation binding of [125I]-G-CSF to its receptor on THP-1 cells; conditions: [125I]-G-CSF specific binding
T2 construct: Both cell lines are known to express the G-CSF-R; host or cells: THP-1 (human monocytic cell line), intact cells
T2 sequence (Q99062 25-836): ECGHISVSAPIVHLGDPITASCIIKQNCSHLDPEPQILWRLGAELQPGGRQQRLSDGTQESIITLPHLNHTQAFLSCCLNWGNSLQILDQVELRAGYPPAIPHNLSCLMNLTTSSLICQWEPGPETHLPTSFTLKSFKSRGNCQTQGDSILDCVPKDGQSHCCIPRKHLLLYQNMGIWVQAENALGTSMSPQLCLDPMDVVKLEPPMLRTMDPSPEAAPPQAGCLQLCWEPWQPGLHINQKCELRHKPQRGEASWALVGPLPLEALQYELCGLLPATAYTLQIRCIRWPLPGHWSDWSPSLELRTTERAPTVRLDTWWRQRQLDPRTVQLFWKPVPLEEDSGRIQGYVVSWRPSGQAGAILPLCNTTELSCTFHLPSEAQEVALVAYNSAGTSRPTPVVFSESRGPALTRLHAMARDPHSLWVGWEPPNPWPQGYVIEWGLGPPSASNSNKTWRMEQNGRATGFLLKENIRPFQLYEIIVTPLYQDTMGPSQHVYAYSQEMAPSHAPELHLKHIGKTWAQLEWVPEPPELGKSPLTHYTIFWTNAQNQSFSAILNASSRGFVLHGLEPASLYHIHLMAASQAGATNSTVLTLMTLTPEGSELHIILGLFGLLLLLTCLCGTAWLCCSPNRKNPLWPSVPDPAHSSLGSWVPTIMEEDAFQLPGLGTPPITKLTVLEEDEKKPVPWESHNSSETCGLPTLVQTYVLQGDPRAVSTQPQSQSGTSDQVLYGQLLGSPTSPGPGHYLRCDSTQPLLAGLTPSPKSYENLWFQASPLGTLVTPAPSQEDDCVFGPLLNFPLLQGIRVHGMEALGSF
From the text: (§3) Two human cell lines were chosen for cell culture studies. One was a human monocyte cell line that is representative of the peripheral immune system, THP-1, which grows in suspension. The other cell line was a human neuroblastoma cell line (SH-SY5Y) which is a mixed cell line although only adherent cells were utilized (Xie, H. R., et al. Chin. Med. J. (Engl) 2010, 123, 1086-92). Both cell lines are known to express the G-CSF-R. Both cell lines were purchased from ATCC (Manassas, Va.). THP-1 cells were cultured in RPMI-1640 medium supplemented with 10% fetal bovine serum (FBS) plus 1% penicillin-streptomycin (ATCC, Manassas, Va.) in a humidified atmosphere of 5% CO2 at 37° C. […]
(§4) Binding of [^125I]-G-CSF was measured using previously described method (Kondo, S., et al. Eur. J. Haematol. 1991, 46, 223-30) with some modifications (Pennington, A., et al. Alzheimer's Disease and Parkinsonism 2013, 3, 121). […] Nonspecific binding of [^125I]-G-CSF was measured by incubations in the presence of a 100-fold molar excess of unlabeled G-CSF. […] Bound and free ligand activities were counted after cutting tubes in two pieces and placing the tips and tops, respectively into separate scintillation vials. […] The specific binding was determined from the amount of bound [^125I]-G-CSF blocked by competition with excess unlabeled G-CSF. […]

[5] = biological target: T3, G-CSF receptor on neuronal (SH-SY5Y) cells (Homo sapiens, UniProt Q99062); test: Saturation binding of [125I]-G-CSF to its receptor on SH-SY5Y cells; conditions: [125I]-G-CSF specific binding
T3 construct: Both cell lines are known to express the G-CSF-R; host or cells: SH-SY5Y (human neuroblastoma cell line, adherent cells), intact cells
T3 sequence (Q99062 25-836): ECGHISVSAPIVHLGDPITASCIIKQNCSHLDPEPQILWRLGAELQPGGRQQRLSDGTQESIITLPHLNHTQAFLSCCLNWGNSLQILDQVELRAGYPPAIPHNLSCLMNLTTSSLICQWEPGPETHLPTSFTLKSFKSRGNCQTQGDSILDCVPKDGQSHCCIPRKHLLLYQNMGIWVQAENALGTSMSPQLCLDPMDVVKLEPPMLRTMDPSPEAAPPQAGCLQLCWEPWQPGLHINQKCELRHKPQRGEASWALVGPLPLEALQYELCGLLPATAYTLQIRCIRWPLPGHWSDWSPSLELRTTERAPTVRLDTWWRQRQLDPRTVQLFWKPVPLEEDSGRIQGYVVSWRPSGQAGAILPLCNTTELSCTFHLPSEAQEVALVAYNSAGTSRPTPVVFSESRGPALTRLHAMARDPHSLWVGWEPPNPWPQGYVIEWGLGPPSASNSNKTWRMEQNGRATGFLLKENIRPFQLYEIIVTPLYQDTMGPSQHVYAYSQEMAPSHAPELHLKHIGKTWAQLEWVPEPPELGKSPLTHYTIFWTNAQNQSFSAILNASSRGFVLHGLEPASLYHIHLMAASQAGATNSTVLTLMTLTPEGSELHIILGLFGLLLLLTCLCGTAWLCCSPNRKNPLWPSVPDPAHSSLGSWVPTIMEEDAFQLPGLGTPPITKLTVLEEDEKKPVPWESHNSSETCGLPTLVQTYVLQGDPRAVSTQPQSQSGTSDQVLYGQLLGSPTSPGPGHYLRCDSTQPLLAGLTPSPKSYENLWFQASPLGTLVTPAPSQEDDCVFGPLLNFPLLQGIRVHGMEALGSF
From the text: as §3, §4

Molecule: COc1ccc2[nH]cc(C3NC(N)=Nc4nc5ccccc5n43)c2c1 (centres unmarked) [Compound 6, 4-(5-methoxy-1H-indol-3-yl)-3,4-dihydro-[1,3,5]-triazino-[1,2a]benzimidazol-2-amine]
- effect on G-CSF-induced Bcl2 expression [1]: did not change the expression of either Bcl2 or PKCδVIII
- effect on G-CSF-induced PKCδVIII expression [1]: did not change the expression of either Bcl2 or PKCδVIII
- Bcl2 protein expression [1]: significantly increased Bcl2 protein expression at the low and intermediate, but not the high concentration; also recorded: at the highest concentration increases PKCδVIII without changing Bcl2 expression
- PKCδVIII protein expression [1]: stimulated PKCδVIII protein expression to levels equivalent to G-CSF alone; also recorded: at the highest concentration increases PKCδVIII
- agonist/antagonist profile at the G-CSF receptor [1]: did not act as an antagonist of G-CSF action; also recorded: appear to act as agonists at the G-CSF receptor
- IC50 [2]: 13.7 nM
- effect on G-CSF-induced Bcl2 expression [3]: blocked the increase in Bcl2 and PKCδVIII protein expression
- effect on G-CSF-induced PKCδVIII expression [3]: blocked the increase in Bcl2 and PKCδVIII protein expression
- Bcl2 protein expression [3]: increased expression of Bcl2
- PKCδVIII protein expression [3]: but not PKCδVIII at all 3 concentrations
- agonist/antagonist profile at the G-CSF receptor [3]: mixed agonist/antagonist

Molecule: NC1=Nc2nc3ccccc3n2C(c2c[nH]nc2-c2cccc([N+](=O)[O-])c2)N1 (centres unmarked) [Compound 10, 4-[3-(3-nitrophenyl)-1H-pyrazol-4-yl]-3,4-dihydro[1,3,5]triazino[1,2-a]-benzimidazol-2-amine]
- effect on G-CSF-induced Bcl2 expression [1]: did not block the actions of G-CSF
- effect on G-CSF-induced PKCδVIII expression [1]: did not block the actions of G-CSF
- Bcl2 protein expression [1]: increased expression of both PKCδVIII and Bcl2 protein to levels equivalent to G-CSF alone
- PKCδVIII protein expression [1]: increased expression of both PKCδVIII and Bcl2 protein to levels equivalent to G-CSF alone
- agonist/antagonist profile at the G-CSF receptor [1]: appear to act as agonists at the G-CSF receptor; also recorded: appeared to function as a G-CSF agonist
- IC50 [2]: 2.3 nM
- effect on G-CSF-induced Bcl2 expression [3]: blocking the effects of G-CSF on Bcl2 expression; also recorded: at the lowest concentration antagonized the effects of G-CSF
- effect on G-CSF-induced PKCδVIII expression [3]: did not antagonize the effects on PKCδVIII protein expression; also recorded: at the lowest concentration antagonized the effects of G-CSF
- Bcl2 protein expression [3]: significantly elevating expression of both Bcl2 and PKCδVIII
- PKCδVIII protein expression [3]: significantly elevating expression of both Bcl2 and PKCδVIII
- agonist/antagonist profile at the G-CSF receptor [3]: mixed agonist/antagonist

B1: [^125I]-G-CSF: radio-labeled G-CSF (specific activity 46.55 TBq/mmol) purchased from Perkin Elmer (protein)
chain: TPLGPASSLPQSFLLKCLEQVRKIQGDGAALQEKLVSECATYKLCHPEELVLLGHSLGIPWAPLSSCPSQALQLAGCLSQLHSGLFLYQGLLQALEGISPELGPTLDTLQLDVADFATTIWQQMEELGMAPALQPTQGAMPAFASAFQRRAGGVLVASHLQSFLEVSYRVLRHLAQP
modifications: 125I radiolabel (specific activity 46.55 TBq/mmol); labelled residue not stated
- Bmax [4]: 901 pM
- Hill Coefficient [4]: 1.19
- Bmax [5]: 4826 pM
- Hill Coefficient [5]: 2.7 and 2.71
